Source: patent US20080119412A1, “Polypeptides for Modulating Binding of Trp Channel Proteins and Trp- Associated Proteins” (NoNO Inc., priority 2003, published 2008)
pEC50: −log10 of the molar value. Residues, ends and D or L forms follow the SMILES beside them. *: point of attachment. Biotin = O=C1N[C@H]2[C@H](CS[C@H]2CCCCC(=O)*)N1

Columns and labels:
Experiment in all cases: G3 assay titration, GST-PDZ fusion / biotinylated peptide
Format in all cases: binding
[1] = molecular target: T1, TIP1 d1 (Homo sapiens, UniProt O14907)
T1 construct: made in house; host or cells: E. coli (DH5alpha, BL21 or JM109)
T1 sequence (O14907 14-116): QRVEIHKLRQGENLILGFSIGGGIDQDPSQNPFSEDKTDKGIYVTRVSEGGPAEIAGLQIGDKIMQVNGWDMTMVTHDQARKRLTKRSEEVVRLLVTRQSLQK
Protocol: (§1) The G3 assay is identical to the G0 assay with the following exceptions. The peptides are typically present at 0.1 μM rather than 20 μM. The peptides are also pre-incubated with the HRP-streptavidin prior to adding to the assay plate. In the G0 assay, free peptide is incubated with the PDZ proteins prior to the addition of the HRP-streptavidin. Thus, for the G0 assay one can lose signal if the bound peptide dissociates from the PDZ protein prior to the addition of the HRP-streptavidin. In the G3 modified assay the HRP-streptavidin/peptide complex is added to the plate in one step, thus increasing the likelihood that all the bound peptide will be bound to HRP-streptavidin. The G3 modified assay increases the chance of observing weak interactions.
(§2) This example describes assays to identify binding between TRPM7 and PDZ domains. GST-PDZ fusions are produced that each contain an entire PDZ domain (or multiple PDZ domains), the collection encompassing approximately 90% of all PDZ domains identified in the human genome. (See Table 5 and Section V (PDZ Proteins and PL Protein Interactions Disclosure). Biotinylated peptide corresponding to 11 residues of Tat coupled to the C-terminal 9 amino acids of TRPM7 ([…]; SEQ ID NO:258) is synthesized and purified by HPLC.
(§3) • Nunc MaxiSorp 96 well Immuno-plate, Nunc • PBS pH 7.4 (phosphate buffered saline, 8 g NaCl, 0.29 g KCl, 1.44 g Na2HPO4, 0.24 g KH2PO4, add H2O to 1 liter and pH 7.4; 0.2 μm filter) • Assay Buffer: 2% BSA in PBS (20 g of bovine serum albumin per liter PBS, fraction V, ICN Biomedicals, cat#IC15142983 • Goat anti-GST polyclonal Ab, stock 5 mg/ml, stored at 4° C., Amersham Pharmacia cat#27-4577-01 • Dilute 1:1000 in PBS, final concentration 5 μg/ml. • HRP-Streptavidin, 2.5 mg/2 ml stock stored at 4° C., Zymed cat#43-4323, dilute 1:2000 into Assay buffer, final concentration of […] • Wash Buffer, PBS • Biotinylated peptides (HPLC purified, stock solution stored in −20° C. freezer) • GST-PRISM proteins (stock stored at −80° C., after 1st thaw store in −10° C. freezer) • TMB (3,3′,5,5′, teramethylbensidine), tablets, Sigma cat.#T5525 • Per plate, dissolve 1 tablet in 1 ml DMSO, add 9 ml Citrate/Phosphate buffer pH 5.4 and 2 μL H2O2 • 0.1 M H2SO4, Sigma cat.#S1526 • 12-w multichannel pipettor & tips • 50 ml reagent reservoirs, Costar#4870 • 50, 15 ml polypropylene conical tubes • Costar Transtar 96 Costar #7605 • Transtar 96 Cartridge Costar #7610 • Molecular Devices microplate reader (450 & 650 nm filters) with SoftMax Pro software *When using reagents stored at or 4° C. or −20° C., remove & keep on ice
(§4) • 1. Coat plate with 100 μl of 5 μg/ml anti-GST, overnight at 4° C. • 2. Dump contents of plate & out tap dry on paper towels • 3. Block with 200 μl Assay Buffer for 2 hrs at room temperature • 4. Prepare proteins at 5 μg/ml in Assay Buffer • 5. Wash 3× with cold PBS (4° C.), avoiding letting the plates dry out • 6. Add proteins at 50 μl per well, incubate 1 to 2 hrs at 4° C. • 7. Prepare peptides to desired concentration in Assay Buffer • 8. Wash 3× with cold PBS (4° C.), avoiding letting the plates dry out • 9. Add HRP-Streptavidin/peptide complex [prepared by incubating for 20 minutes at room temperature HRP-Streptavidin (1:2000) with the desired biotin-peptide concentration for 20 minutes at room temperature] at 50 μl per well on ice • 10. Place at room temperature for exactly 30 minutes • 11. Promptly wash 5× with PBS at room temperature • 12. Add 100 μl/well TMB substrate (write time on plate) • 13. Incubate in dark at room temperature for a maximum of 30 minutes • 14. Read plate at 25 minutes (650 nm), optional • 15. Stop reaction with 100 μl of 0.18 M H2SO4, 30 minutes after adding TMB • Take last reading at 450 nm soon after stopping reaction
(§5) The G3 assay was performed on a subset of the PDZ domains as in Example II except that the concentration of peptide was 0.002 μM, […], 0.1 μM, 0.2 μM, 1 μM, and 2 μM. Data was fitted to the equation: […]

[2] = molecular target: T2, Mint1 d2 (Homo sapiens, UniProt Q02410)
T2 construct: made in house; host or cells: E. coli (DH5alpha, BL21 or JM109)
T2 sequence (Q02410 with tags, fused parts or gaps): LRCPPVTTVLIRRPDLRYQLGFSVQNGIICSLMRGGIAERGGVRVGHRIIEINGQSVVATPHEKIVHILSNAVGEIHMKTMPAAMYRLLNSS
Protocol: as §1, §2, §3, §4, §5

[3] = molecular target: T3, KIAA1284 d1 (Homo sapiens, UniProt Q9ULD6)
T3 construct: made in house; host or cells: E. coli (DH5alpha, BL21 or JM109)
T3 sequence (Q9ULD6 159-271): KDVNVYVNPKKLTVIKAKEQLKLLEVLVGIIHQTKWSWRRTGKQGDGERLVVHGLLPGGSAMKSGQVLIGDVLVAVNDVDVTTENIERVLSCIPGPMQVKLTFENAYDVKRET
Protocol: as §1, §2, §3, §4, §5

[4] = molecular target: T4, LIM Mystique d1 (Homo sapiens, UniProt Q96JY6)
T4 construct: made in house; host or cells: E. coli (DH5alpha, BL21 or JM109)
T4 sequence (Q96JY6 1-91): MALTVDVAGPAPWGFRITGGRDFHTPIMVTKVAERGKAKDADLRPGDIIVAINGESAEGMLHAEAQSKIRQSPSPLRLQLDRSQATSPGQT

[5] = molecular target: T5, Syntrophin 1 alpha d1 (Homo sapiens, UniProt Q13424)
T5 construct: made in house; host or cells: E. coli (DH5alpha, BL21 or JM109)
T5 sequence (Q13424 84-177): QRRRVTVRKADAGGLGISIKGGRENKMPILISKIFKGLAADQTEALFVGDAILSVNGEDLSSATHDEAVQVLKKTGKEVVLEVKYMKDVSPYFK

[6] = molecular target: T6, Mint 1 (d1, d2) (Homo sapiens, UniProt Q02410, K730E)
T6 construct: made in house; host or cells: E. coli (DH5alpha, BL21 or JM109)
T6 sequence (Q02410 651-828 K730E): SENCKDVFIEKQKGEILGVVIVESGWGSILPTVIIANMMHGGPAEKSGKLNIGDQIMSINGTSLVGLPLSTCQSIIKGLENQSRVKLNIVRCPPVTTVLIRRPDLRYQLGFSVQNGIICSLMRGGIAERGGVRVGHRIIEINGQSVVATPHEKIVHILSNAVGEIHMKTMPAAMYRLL

For `CSCC[C@H](NC(=O)[C@H](CC(C)C)NC(=O)[C@H](CCCNC(=N)N)NC(=O)[C@@H](NC(=O)[C@H](CO)NC(=O)[C@H](CC(N)=O)NC(=O)[C@@H](NC(=O)[C@H](CO)NC(=O)[C@H](CCCNC(=N)N)NC(=O)[C@H](CCCNC(=N)N)NC(=O)[C@H](CCCNC(=N)N)NC(=O)[C@H](CCC(N)=O)NC(=O)[C@H](CCCNC(=N)N)NC(=O)[C@H](CCCNC(=N)N)NC(=O)[C@H](CCCCN)NC(=O)[C@H](CCCCN)NC(=O)[C@H](CCCNC(=N)N)NC(=O)CNC(=O)[C@H](Cc1ccc(O)cc1)NC(=O)CCCC[C@@H]1SC[C@@H]2NC(=O)N[C@@H]21)[C@@H](C)O)C(C)C)C(=O)N[C@@H](CC(C)C)C(=O)O` [Tat-TRPM7 peptide] (Biotin-YGRKKRRQRRRSTNSVRLML-OH), the pEC50 [1] was over 6.00, the pEC50 [2] was over 5.70 and the pEC50 [3] was under 5.70. It also gave a pEC50 [4] of 7.05, a pEC50 [5] of 6.80 and a pEC50 [6] of 6.74.
